Converted amounts (≈) assume the structure as drawn. Counter-ions that a name gives are not always drawn.

The term MIC denotes the lowest concentration that inhibits growth of the organism.

Series [1] in a line: Solubility in water, observation on the lyophilized product. It counts as physicochemical. Particulars: lyophilized material. The procedure: A solution of (4R,5S,6S)-4-(4"-aminobutyl)-6-[(1'R)-1'-hydroxyethyl]-3-[(pyridin-4-yl)methylthio]-7-oxo-1-azabicyclo[3.2.0]hept-2-ene-2-carboxylic acid (0.134 g, 0.34 mmol) in 15 mL of cold water (pH 6.4), was adjusted to pH 8.0 with 1 M NaOH. Then 0.170 g (1.36 mmol) of aminoiminomethanesulfonic acid [K. Kim et al., Tet. Lett., 29, 3183 (1988)] was added in small portions over 5 min while maintaining the pH at 8 with 1 M NaOH. Three more portions of aminoiminomethanesulfonic acid (3 x 0.050 g) were added at 30 min intervals and the resulting mixture (some insoluble material) was stirred for a total of 3 h at 0-5 C. The pH was maintained throughout at 8 with 1 M NaOH. Then 15 mL of 0.2M pH 6.0 phosphate buffer was added and the resulting homogeneous solution was chromatographed on reverse phase silica gel (µBondapak C18, 2.5 x 14 cm). Elution with a gradient of acetonitrile (0-10%) in water gave 0.103 g (69%) of the title compound as a white amorphous powder after freeze drying.

Series [2] in a line: Chemical stability in aqueous solution (half-life). The class given is physicochemical. Particulars: 37°C, 10^-4 M, pH 7.4, aqueous solution; read-out: Half-life (T 1/2) (converted). As for the experimental part:
These values were determined by the method of Woodward et al, J. Am. Chem. Soc., 102, 2042 (1980)

In a further series the test system is Escherichia coli, A15119. The series is described as follows: In vitro antibacterial activity (MIC), serial 2-fold dilution. The class given is cell-based. Particulars: Escherichia coli A15119; Mueller-Hinton; 37°C, 17 h; read-out: Antibacterial Activity MIC E. coli. The procedure:
(§1) In vitro antibacterial activity was determined by serial 2-fold dilution of the compound in Mueller-Hinton agar and inoculation of the agar surface or broth with an appropriately diluted 18-24 h broth culture.

Series [3] relates to Pseudomonas aeruginosa, A9843. The series is described as above. It counts as cell-based. The following applies: Pseudomonas aeruginosa A9843; Mueller-Hinton; 37°C, 17 h; read-out: Antibacterial Activity MIC P. aer. The procedure:
as §1

Series [4] has as its system Streptococcus pneumoniae, A9585. The description is as above. Particulars: Streptococcus pneumoniae A9585; Mueller-Hinton; 37°C, 17 h; read-out: Antibacterial Activity MIC S. pn. The class given is cell-based. As for the experimental part: as §1

As for `C[C@@H](O)[C@H]1C(=O)N2C(C(=O)O)=C(SCc3ccncc3)[C@H](CCCCNC(=N)N)[C@H]12` [Example 78, (4R,5S,6S)-4-(4"-Guanidinobutyl]-6-[(1'R)-1'-hydroxyethyl]-3-[(pyridin-4-yl)methylthio]-7-oxo-1-azabicyclo-[3.2.0]hept-2-ene-2-carboxylic acid], the Solubility in water entry in series [1] is “only slightly soluble in water”.
Regarding `C[C@@H](O)[C@H]1C(=O)N2C(C(=O)O)=C(SCCN3CCCC3)[C@H](CCCNC(=N)N)[C@H]12` [Example 127, (4R,5S,6S)-4-(3"-Guanidinopropyl)-6-[(1'R)-1'-hydroxyethyl]3-([2-(1-pyrrolidinyl)ethyllthio)-7-oxo-1-azabicyclo[3.2.0]-hept-2-ene-2-carboxylic acid, acetic acid salt], in series [2], the half-life at 100 µM is 31 h. Further, the MIC worked out at 0.13 µg/mL with Escherichia coli, A15119; 1 µg/mL in series [3]; 0.06 µg/mL in series [4].
For the compound `C[C@@H](O)[C@H]1C(=O)N2C(C(=O)O)=C(SCCC#N)[C@H](CCCCNC=N)[C@H]12` [Example 19, (4R,5S,6S)-3-[(2-Cyanoethyl)thio]-4-[4"-(N-formimidoyl)-amino-butyl]-6-[(1'R)-1'-hydroxyethyl]-7-oxo-1 - azabicyclo-[3.2.0]hept-2-ene-2-carboxylic acid], in series [2], the half-life at 100 µM was 117 h. For the same compound, the MIC was found to be 0.004 µg/mL (≈ 0.0105 µM) in the series with Escherichia coli, A15119; 1 µg/mL (≈ 2.63 µM) in series [3]; 0.06 µg/mL (≈ 0.158 µM) in series [4].

Source of the values: EP0433759A1, “4-Substituted alkyl carbapenem antibiotics” (Bristol-Myers Squibb Company, priority 1989, dated 1991).
